Data published in patent US20240285500A1, “HAIR GROWTH AGENT” (ADJUVANT HOLDINGS CO., LTD., priority 2021, published 2024).

How the values were obtained:
[1] = tested on: VEGF gene expression in human dermal papilla cells; assay: Evaluation of human dermal papilla cell VEGF gene expression (real-time PCR); assay type: cell-based; conditions: 72 hours
Description: Exemplary Test 1: Evaluation of Human Dermal Papilla Cell VEGF Gene Expression
The VEGF gene is expressed in dermal papilla cells, and contributes to expression of such effects as increase in hair shaft diameter and improving maximum hair shaft length and improving hair shaft elongation rate and hair shaft growth promotion at head hair, beard, eyebrows, and/or eyelashes. Human dermal papilla cells were therefore used, and evaluation was carried out with respect to increase in VEGF gene expression for the respective components.
Human dermal papilla cells (Catalog No. CA60205a; derived from person; Toyobo Co., Ltd. (Japan)) were purchased, testing and evaluation being carried out with maintenance and culture of cells being performed as described in the protocol. […]
A 24-well plate was seeded with human dermal papilla cells so as to obtain 6×10^3 thereof per well. […] The GAPDH gene was used as an internal standard, the amount of VEGF gene expression being calculated relative to the negative control group. […]

[2] = tested on: vascular endothelial growth factor (VEGF) expression in human dermal papilla cells; conditions: cited from earlier work

CCCCCCCCCCCCCC[C@@H](O)[C@@H](O)[C@@H](N)CO [Working Example 1, phytosphingosine]
change in amount of expression of the VEGF gene as compared with the control group ([1]; vs control group at which nothing had been added, GAPDH internal standard, FIG. 1): increase in dosage-dependent fashion in the amount of expression of the VEGF gene

Nc1ncnc2c1ncn2[C@@H]1O[C@H](CO)[C@@H](O)[C@H]1O [adenosine]
expression of vascular endothelial growth factor (VEGF) [2]: promotes expression of vascular endothelial growth factor (VEGF)

CCCCCCCCCCCCCC[C@@H](O)[C@@H](O)[C@@H](N)CO [phytosphingosine]
amount of expression of the VEGF gene compared with Comparative Example 1 ([1]; increased amount of phytosphingosine vs Comparative Example 1, FIG. 1): significantly greater
